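At the GI50, growth is halved. TGI marks complete inhibition of growth.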
Assays:
Experiment in all cases: DTP human tumour cell line panel, 384-well format
786-0 renal = system: 786-0 renal
A498 renal = system: A498 renal
A549 NSCLC = system: A549 NSCLC
ACHN renal = system: ACHN renal
BT-549 breast = system: BT-549 breast
CAKI-1 renal = system: CAKI-1 renal
CCRF-CEM leukemia = system: CCRF-CEM leukemia
COLO 205 colon = system: COLO 205 colon
DU-145 prostate = system: DU-145 prostate
EKVX NSCLC = system: EKVX NSCLC
HCC-2998 colon = system: HCC-2998 colon
HCT-116 colon = system: HCT-116 colon
HCT-15 colon = system: HCT-15 colon
HOP-62 NSCLC = system: HOP-62 NSCLC
HOP-92 NSCLC = system: HOP-92 NSCLC
HS 578T breast = system: HS 578T breast
HT29 colon = system: HT29 colon
IGROV1 ovarian = system: IGROV1 ovarian
K-562 leukemia = system: K-562 leukemia
KM12 colon = system: KM12 colon
LOX IMVI melanoma = system: LOX IMVI melanoma
M14 melanoma = system: M14 melanoma
MALME-3M melanoma = system: MALME-3M melanoma
MCF7 breast = system: MCF7 breast
MDA-MB-231 breast = system: MDA-MB-231 breast
MDA-MB-435 melanoma = system: MDA-MB-435 melanoma
MDA-MB-468 breast = system: MDA-MB-468 breast
MOLT-4 leukemia = system: MOLT-4 leukemia
NCI-H226 lung = system: NCI-H226 lung
NCI-H23 lung = system: NCI-H23 lung
NCI-H322M lung = system: NCI-H322M lung
NCI-H460 NSCLC = system: NCI-H460 NSCLC
NCI-H522 lung = system: NCI-H522 lung
NCI/ADR-RES ovarian = system: NCI/ADR-RES ovarian
OVCAR-3 ovarian = system: OVCAR-3 ovarian
OVCAR-4 ovarian = system: OVCAR-4 ovarian
OVCAR-5 ovarian = system: OVCAR-5 ovarian
OVCAR-8 ovarian = system: OVCAR-8 ovarian
PC-3 prostate = system: PC-3 prostate
RPMI-8226 leukemia = system: RPMI-8226 leukemia
RXF 393 renal = system: RXF 393 renal
SF-268 CNS = system: SF-268 CNS
SF-295 CNS = system: SF-295 CNS
SF-539 CNS = system: SF-539 CNS
SK-MEL-28 melanoma = system: SK-MEL-28 melanoma
SK-MEL-5 melanoma = system: SK-MEL-5 melanoma
SK-OV-3 ovarian = system: SK-OV-3 ovarian
SN12C renal = system: SN12C renal
SNB-19 CNS = system: SNB-19 CNS
SNB-75 CNS = system: SNB-75 CNS
SW-620 colon = system: SW-620 colon
T-47D breast = system: T-47D breast
TK-10 renal = system: TK-10 renal
U251 glioblastoma = system: U251 glioblastoma
UACC-257 melanoma = system: UACC-257 melanoma
UACC-62 melanoma = system: UACC-62 melanoma
UO-31 renal = system: UO-31 renal

COc1ncc(Nc2ncc([C@@H](C)N3CCN(S(C)(=O)=O)CC3)cc2-c2nc(C)nc(N)n2)cc1F
GI50 ([…]-0 renal): 0.076 µM
TGI (786-0 renal): 3.77 µM
GI50 (A498 renal): 0.0322 µM
TGI (A498 renal): 0.337 µM
GI50 (A549 NSCLC): 0.138 µM
TGI (A549 NSCLC): 11.9 µM
GI50 (ACHN renal): 0.1 µM
TGI (ACHN renal): > 100 µM
GI50 (BT-549 breast): 0.0533 µM
TGI (BT-549 breast): 6.33 µM
GI50 (CAKI-1 renal): 0.023 µM
TGI (CAKI-1 renal): 18.1 µM
GI50 (CCRF-CEM leukemia): 0.0891 µM
TGI (CCRF-CEM leukemia): 1.55 µM
GI50 (COLO 205 colon): 0.275 µM
TGI (COLO 205 colon): 67.8 µM
GI50 (DU-145 prostate): 0.651 µM
TGI (DU-145 prostate): > 100 µM
GI50 (EKVX NSCLC): 0.0733 µM
TGI (EKVX NSCLC): 5.23 µM
GI50 (HCC-2998 colon): 1.23 µM
TGI (HCC-2998 colon): 38.2 µM
GI50 (HCT-116 colon): 2.79 µM
TGI (HCT-116 colon): > 100 µM
GI50 (HCT-15 colon): 0.465 µM
TGI (HCT-15 colon): > 100 µM
GI50 (HOP-62 NSCLC): 1.94 µM
TGI (HOP-62 NSCLC): 83.7 µM
GI50 (HOP-92 NSCLC): 0.0246 µM
TGI (HOP-92 NSCLC): 1.22 µM
GI50 (HS 578T breast): 0.017 µM
TGI (HS 578T breast): 0.333 µM
GI50 (HT29 colon): 0.139 µM
TGI (HT29 colon): > 100 µM
GI50 (IGROV1 ovarian): < 0.01 µM
TGI (IGROV1 ovarian): 0.0433 µM
GI50 (K-562 leukemia): 4.54 µM
TGI (K-562 leukemia): > 100 µM
GI50 (KM12 colon): 1.36 µM
TGI (KM12 colon): > 100 µM
GI50 (LOX IMVI melanoma): 0.552 µM
TGI (LOX IMVI melanoma): 5.65 µM
GI50 (M14 melanoma): 1.28 µM
TGI (M14 melanoma): > 100 µM
GI50 (MALME-3M melanoma): 1.04 µM
TGI (MALME-3M melanoma): > 100 µM
GI50 (MCF7 breast): 0.0407 µM
TGI (MCF7 breast): 27.6 µM
GI50 (MDA-MB-231 breast): 2.27 µM
TGI (MDA-MB-231 breast): > 100 µM
GI50 (MDA-MB-435 melanoma): 2.31 µM
TGI (MDA-MB-435 melanoma): > 100 µM
GI50 (MDA-MB-468 breast): < 0.01 µM
TGI (MDA-MB-468 breast): 0.16 µM
GI50 (MOLT-4 leukemia): 0.015 µM
TGI (MOLT-4 leukemia): 0.12 µM
GI50 (NCI-H226 lung): 1.3 µM
TGI (NCI-H226 lung): 13.7 µM
GI50 (NCI-H23 lung): 1.95 µM
TGI (NCI-H23 lung): > 100 µM
GI50 (NCI-H322M lung): 0.367 µM
TGI (NCI-H322M lung): 27.9 µM
GI50 (NCI-H460 NSCLC): 0.0711 µM
TGI (NCI-H460 NSCLC): > 100 µM
GI50 (NCI-H522 lung): 1.63 µM
TGI (NCI-H522 lung): 19.5 µM
GI50 (NCI/ADR-RES ovarian): 3.39 µM
TGI (NCI/ADR-RES ovarian): > 100 µM
GI50 (OVCAR-3 ovarian): 0.061 µM
TGI (OVCAR-3 ovarian): 3.1 µM
GI50 (OVCAR-4 ovarian): 2.25 µM
TGI (OVCAR-4 ovarian): > 100 µM
GI50 (OVCAR-5 ovarian): 0.16 µM
TGI (OVCAR-5 ovarian): 16.8 µM
GI50 (OVCAR-8 ovarian): 1.44 µM
TGI (OVCAR-8 ovarian): > 100 µM
GI50 (PC-3 prostate): 0.0336 µM
TGI (PC-3 prostate): 18.6 µM
GI50 (RPMI-8226 leukemia): 2.8 µM
TGI (RPMI-8226 leukemia): 8.44 µM
GI50 (RXF 393 renal): 0.0125 µM
TGI (RXF 393 renal): 0.0763 µM
GI50 (SF-268 CNS): < 0.01 µM
TGI (SF-268 CNS): 0.0889 µM
GI50 (SF-295 CNS): 0.0498 µM
TGI (SF-295 CNS): 2.1 µM
GI50 (SF-539 CNS): 0.179 µM
TGI (SF-539 CNS): 4.15 µM
GI50 (SK-MEL-28 melanoma): 0.0896 µM
TGI (SK-MEL-28 melanoma): 6.79 µM
GI50 (SK-MEL-5 melanoma): 1.03 µM
TGI (SK-MEL-5 melanoma): 11.9 µM
GI50 (SK-OV-3 ovarian): 0.0965 µM
TGI (SK-OV-3 ovarian): 10.4 µM
GI50 (SN12C renal): 0.0317 µM
TGI (SN12C renal): 8.95 µM
GI50 (SNB-19 CNS): 4.73 µM
TGI (SNB-19 CNS): > 100 µM
GI50 (SNB-75 CNS): < 0.01 µM
TGI (SNB-75 CNS): 0.0481 µM
GI50 (SW-620 colon): 3.8 µM
TGI (SW-620 colon): > 100 µM
GI50 (T-47D breast): < 0.01 µM
TGI (T-47D breast): 0.0426 µM
GI50 (TK-10 renal): 0.294 µM
TGI (TK-10 renal): 7.94 µM
GI50 (U251 glioblastoma): 1.01 µM
TGI (U251 glioblastoma): > 100 µM
GI50 (UACC-257 melanoma): 0.488 µM
TGI (UACC-257 melanoma): 60.5 µM
GI50 (UACC-62 melanoma): 0.0304 µM
TGI (UACC-62 melanoma): 1.45 µM
GI50 (UO-31 renal): 0.187 µM
TGI (UO-31 renal): 7.21 µM

Source: PubChem BioAssay (NCI)
